Consider six compounds from ChEMBL document CHEMBL3886228, “Substituted benzopiperazines as CETP inhibitors” (2015).

Each structure is given as a SMILES string.

In this test the target is T1, Cholesteryl ester transfer protein (Homo sapiens, UniProt P11597).
T1 sequence (P11597 whole entry): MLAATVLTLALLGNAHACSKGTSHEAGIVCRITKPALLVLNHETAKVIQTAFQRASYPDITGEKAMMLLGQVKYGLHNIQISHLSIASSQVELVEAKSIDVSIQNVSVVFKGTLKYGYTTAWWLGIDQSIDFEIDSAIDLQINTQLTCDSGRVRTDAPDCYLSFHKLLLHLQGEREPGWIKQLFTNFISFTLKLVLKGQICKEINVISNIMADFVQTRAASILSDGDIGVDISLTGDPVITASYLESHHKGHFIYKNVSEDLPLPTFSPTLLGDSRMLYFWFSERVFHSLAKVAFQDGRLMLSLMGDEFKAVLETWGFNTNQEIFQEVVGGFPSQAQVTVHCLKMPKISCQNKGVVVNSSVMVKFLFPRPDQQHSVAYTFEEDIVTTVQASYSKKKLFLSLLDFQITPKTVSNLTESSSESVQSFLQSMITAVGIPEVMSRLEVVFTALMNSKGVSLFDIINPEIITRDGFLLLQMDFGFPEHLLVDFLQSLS
Nature of the test: Scintillation Proximity Assay (SPA): First, low density lipoprotein (LDL) (Meridian) was biotinylated by incubating LDL with biotin for 1 hour on ice, after which it was dialyzed to remove free biotin. Then compounds at varying concentrations were incubated with 15 nM CETP (reagent production group, In Vitro Pharmacology, MRL Rahway) and 50 ug/ml of the biotinylated LDL in 50 mM HEPES, 150 mM NaCl, pH 7.4, for 1 hour at 37° C. The reaction was started by adding 3H-cholesterol ester high density lipoprotein (HDL) (American Radiochemicals Corp) at a concentration of ~0.6 nM. The reaction proceeded for 2 hours at 37° C., after which time it was quenched by the addition of 12% acetic acid. PVT streptavadin-coated scintillation proximity beads, which had been brought to room temperature, were then added at a concentration of 4 mg/ml. The assay was then mixed and counted after one half hour in a Microbeta plate reader. (SPA uses beads or plates that emit light when radiolabelled molecules are held near them.)

For `COc1cccc(CN2C[C@@H](c3cccc(C(F)(F)F)c3)N(C[C@@H](O)C(F)(F)F)c3ccccc32)n1`, inhibition was half-maximal at 630 nM (IC50).
Then `O[C@H](CN1c2ccccc2N(Cc2cccc(OC(F)(F)F)c2)C[C@H]1c1cccc2ccccc12)C(F)(F)F`, with 1430 nM.
In the case of `CC(C)Oc1cccc(CN2C[C@@H](c3cccc(C(F)(F)F)c3)N(C[C@@H](O)C(F)(F)F)c3ccccc32)n1` it was 750 nM.
In the case of `CCOc1cccc(CN2C[C@@H](c3cccc(C(F)(F)F)c3)N(C[C@@H](O)C(F)(F)F)c3ccccc32)n1` it was 310 nM; in that of `COc1cccnc1CN1C[C@@H](c2cccc(C(F)(F)F)c2)N(C[C@@H](O)C(F)(F)F)c2ccccc21`, 210 nM; in that of `Cc1cc(CN2C[C@@H](c3cccc(C(F)(F)F)c3)N(C[C@@H](O)C(F)(F)F)c3ccccc32)cc(Cl)n1`, 67 nM.
